The values that follow come from article PMC12518639, “Apomorphine is a novel necroptosis inhibitor targeting mixed lineage kinase domain-like protein oligomerization” (Cell Death Discovery, 2025).

The subject of assay [1] is DSS-induced colitis in C57BL/6 mice. As to the kind of experiment: DSS-induced colitis model. Format: in vivo, mouse. As to the method: For DSS-induced colitis, male C57BL/6 mice aged 6–8 weeks (Central Lab Animal Inc., S. Korea) were administered 2.5% DSS (36–50 kDa, 9011-18-1, MP Biomedicals, Solon, OH, USA) in their drinking water for 8 days. The 2.5% DSS-supplemented drinking water was prepared by dissolving 12.5 g of DSS powder in 500 mL of distilled water and was freshly prepared and replaced daily throughout the 8 days. Body weight and DAI score were recorded daily. The DAI score was calculated based on weight loss (no weight loss, 1–5%, 5–10%, 10–15%, and >15% weight loss, respectively, representing DAI scores of 0, 1, 2, 3, and 4), stool consistency/diarrhea (normal = 0, loose stools = 2, and watery diarrhea = 4), and bleeding (no bleeding = 0, slight bleeding = 2, gross bleeding = 4). At the end of the experiment, the mice were sacrificed, and tissue samples were collected.
Each mouse colon was removed, measured in length, cut open, fixed in Bouin’s fixative (50% ethanol/5% acetic acid in distilled water), and embedded in paraffin. Tissue sections were stained with H&E (Sigma-Aldrich). Histological evaluation of the colitis lesions along the entire colon was performed using the scoring system: degree of crypt structural damage (0–3), degree of inflammatory cell infiltration (0–3), and degree of submucosal edema (0–3). For PAS staining, deparaffinized and rehydrated tissue sections were treated with 0.5% periodic acid (10450-60-9, Junsei Chemical Co., Tokyo, Japan) and stained with Schiff’s reagent (3952016, Sigma-Aldrich). Sections were dehydrated in ethyl alcohol and coverslipped.

In a further assay the test system is MLKL. As to the kind of experiment: Confocal microscopy of MLKL membrane translocation. It is filed as cell-based, human. The note with it: THP-1, TBZ, 8 h. As to the method:
THP-1 cells were washed and fixed in 4% paraformaldehyde and incubated in 0.25% Triton X-100 for 10 min, blocked for 30 min with 5% BSA-PBS, and stained with the MLKL and CD36 (ab252922, Abcam) antibody. The nuclei were stained with DAPI. Confocal microscopy (FV1000, Olympus, Tokyo, Japan) was used for image analysis. The signal intensity was measured using FluoView FV1000 software.

The next assay deals with T1, Nt-hMLKL (2–154) (Homo sapiens, UniProt Q8NB16).
T1 construct: Nt-hMLKL (2–154), Nt-mMLKL (1–180), and Ct-hMLKL (183–471) were generated using the pBT7-N-His vector; His (N); made in house; host or cells: E. coli BL21
T1 sequence (Q8NB16 2-154): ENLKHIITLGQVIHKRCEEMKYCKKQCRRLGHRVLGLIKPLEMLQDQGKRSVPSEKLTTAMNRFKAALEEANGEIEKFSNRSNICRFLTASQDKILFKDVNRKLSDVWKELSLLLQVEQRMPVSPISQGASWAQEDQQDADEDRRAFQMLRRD
The assay can be described thus: SPR binding to Nt-hMLKL. To be noted: for pKd: SPR, CM5 chip, 25 °C. From the text:
(§1) The hMLKL plasmid (RC213152, OriGene, Rockville, MD, USA), and recombinant Wt-hMLKL (ab241453, Abcam) and Wt-mMLKL (MBS1379843, MyBioSource, San Diego, CA, USA) proteins were purchased. Nt-hMLKL (2–154), Nt-mMLKL (1–180), and Ct-hMLKL (183–471) were generated using the pBT7-N-His vector. Nt-hMLKL^C86A, Nt-hMLKL^F148A, -hMLKL^C86A/L89A/D94A, and Nt-hMLKL^R145A/R146A/F148A/M150A were generated using the Site-directed Mutagenesis Kit (EZ004S, Enzynomics, S. Korea). These constructs were subcloned into pBT7-N-His and pET-15b plasmid vectors. E. coli BL21 cells transformed with the cloned expression vectors were cultured in LB medium and supplemented with 100 μg/mL ampicillin until an OD at 600 nm of 0.5–0.6 was reached. The cultures were induced by 1 mM IPTG (367-93-1, Sigma-Aldrich). The cells were lysed and centrifuged. The clear supernatants were subjected to Ni-NTA affinity chromatography (175018169, QIAGEN, Hilden, Germany). Plasmids encoding mMLKL (1–464)–gyrase fusion constructs were kindly provided by Prof. James Murphy (Cell Signalling and Cell Death Division, The Walter and Eliza Hall Institute of Medical Research, Parkville, Victoria 3052, Australia).
The interactions of Wt-hMLKL, Wt-mMLKL, Nt-mMLKL, Nt, and Ct-hMLKL proteins with Re-APO or Ox-APO were detected through SPR analysis using Biacore™ T200 (Cytiva, Marlborough, MA, USA). Each MLKL protein was immobilized on a CM5 sensor chip. To derive the Rligand values, coupling processes were performed based on the molecular weights of the MLKL protein (MW ligand) and Re-APO or Ox-APO (MW analyte). Re-APO or Ox-APO was injected into an HBS buffer (10 mM HEPES, 150 mM NaCl, 3.4 mM EDTA, and 0.005% Tween 20, pH 7.4) at 25 °C (10 μL/min flow rate). Sensorgrams were recorded and analyzed in real-time using the control software in the BIAcore T200 system. All data were analyzed using the BIA evaluation software (Cytiva).
In general terms: Surface plasmon resonance follows binding to a sensor surface in real time, without labels.

A further assay deals with T2, Ct-hMLKL (183–471) (Homo sapiens, UniProt Q8NB16).
T2 construct: Nt-hMLKL (2–154), Nt-mMLKL (1–180), and Ct-hMLKL (183–471) were generated using the pBT7-N-His vector; His (N); made in house; host or cells: E. coli BL21
T2 sequence (Q8NB16 183-471): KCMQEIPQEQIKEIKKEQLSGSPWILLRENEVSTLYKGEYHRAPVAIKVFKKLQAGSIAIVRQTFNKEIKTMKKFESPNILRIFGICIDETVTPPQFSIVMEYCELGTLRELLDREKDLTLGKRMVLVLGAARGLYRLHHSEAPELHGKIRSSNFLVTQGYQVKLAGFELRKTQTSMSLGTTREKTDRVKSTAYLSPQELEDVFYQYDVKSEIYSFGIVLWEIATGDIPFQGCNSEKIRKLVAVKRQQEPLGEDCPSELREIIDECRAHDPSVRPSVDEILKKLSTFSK
As to the kind of experiment: SPR binding to Ct-hMLKL. To be noted: CM5 chip.
Source text: as §1, with “James Murphy (Cell Signalling and Cell Death Division, The Walter and Eliza Hall Institute of Medical Research, Parkville, Victoria 3052, Australia).” left out
The interactions of Wt-hMLKL, Wt-mMLKL, Nt-mMLKL, Nt, and Ct-hMLKL proteins with Re-APO or Ox-APO were detected through SPR analysis using Biacore™ T200 (Cytiva, Marlborough, MA, USA). […] Sensorgrams were recorded and analyzed in real-time using the control software in the BIAcore T200 system. All data were analyzed using the BIA evaluation software (Cytiva).

The mark [2] stands for this setting: 15 mg/kg i.p. daily, 2.5% DSS 8 days.

Molecules are shown by their SMILES. pKd: −log10 of the molar value.

One may read the pKd as the negative decadic logarithm of the Kd, by convention in mol/L. A high value points to a low Kd. In the case of `CN1CCc2cccc3c4c(cc1c23)C=CC(=O)C4=O` [Ox-APO], the average histologic score in assay [1] (1.5 mg/kg i.p. daily, 2.5% DSS 8 days) was determined as 3.0; in assay [1] (setting [2]) it was 1.2. Also, the “DAI score and colon length” value in assay [1] (i.p. daily, 2.5% DSS 8 days) is recorded as “more effective than Re-APO”. For the same compound, in the assay with MLKL (same concentration), the “inhibition of migration of p-MLKL to the cell membrane” value was “more effective than Re-APO”. On Nt-hMLKL (2–154), this compound gave a pKd of 5.88. Also, on Nt-hMLKL (2–154) (from KD values), the “fold difference of binding versus Re-APO” value was ~1000 fold. Further, the “binding in SPR” value on Ct-hMLKL (183–471) was “no detectable binding”.

`CN1CCc2cccc3c2C1Cc1ccc(O)c(O)c1-3` (stereo not shown) [Re-APO] registered an average histologic score in assay [1] (setting [2]) of 2.6. The “alleviation of DSS-induced colitis symptoms relative to Ox-APO” value in assay [1] (at the same concentration) is “about ten times weaker than Ox-APO”. This compound showed a pKd on Nt-hMLKL (2–154) of 2.94. Further, the “binding in SPR” value at Ct-hMLKL (183–471) was “no detectable binding”.

Take `CN1CCc2cccc3c2[C@@H]1Cc1ccc(O)c(O)c1-3` [S62, (6aS)-6-methyl-5,6,6a,7-tetrahydro-4H-dibenzo[de,g]quinoline-10,11-diol]: in assay [1] (0.15, 1.5 or 15 mg/kg i.p. daily, oxidative state not determined), the “colitis symptoms and pathological changes (H&E, PAS)” value is “significantly alleviated”. Besides, the “level of MLKL in the cell membrane” value in the assay on MLKL is “profoundly decreased”.
